In patent publication US20160281089A1, “PREVENTION OF VIRAL INFECTIVITY” (priority 2005, published 2016):

Assays:
[1] = molecular target: T1, RNase H activity of HIV RT/RNaseH (Human immunodeficiency virus type 1 group M subtype B, UniProt P04585); test: Permeabilized HIV virions with ODN A and Illimaquinone, viral RNA degradation by real-time PCR; conditions: 150 μM Illimaquinone, 50 nM ODN A, 0.1% NP-40 permeabilized virions, 30 min 37° C., without added RT/RNaseH
[2] = molecular target: T1, RNase H activity of HIV RT/RNaseH; parameters: the HIV RT/RNase H is a heterodimer of p66 and p51 with and without RNase H; endogenous in cells; host or cells: permeabilized HIV virions (virion-associated enzyme); panel B has added recombinant RT/RNaseH at 0.05 units/µl; conditions: previously described; cited from earlier work
HIV virions [3] = test: Infectivity of ODN-pre-incubated HIV virions in C81-66/45 cells; format: cell-based; conditions: for binding/uptake of pre-treated virions by host cells: pre-incubation 4 hours, HIV RNA in infected cells 1 hour post-infection
Method: As a next step we investigated the antiviral effect of ODNs by testing the infectivity of treated virions in cell culture studies. We used ODN A, ODN T, as PPT and ODN CO. 2×10^5 C81-66/45 cells were infected with virions pre-incubated with different ODNs at 0.01 MOI for 1, 2 or 4 hours prior to infection. RNA was extracted from infected cells and HIV replication was analysed by real-time PCR 3 days post-infection.
To test the specificity of suppression of viral replication, the effect of ODN A on the infectivity of virions was compared with control ODNs. Virions were pre-treated with the ODNs and HIV replication in infected cells was analysed by real-time PCR, 5 days (FIG. 6A) or 20 days post-infection (FIG. 6B) and by measuring p24 production in the supernatant of the infected cells (FIG. 6C).
(A) HIV virions were incubated with 0.5 μM of ODNs for 1, 2 or 4 hours. C81-66/45 cells were infected with pre-incubated virions, at 0.01 MOI. RNA was extracted from infected cells and HIV replication was analysed by real-time PCR, 3 days post-infection (p.i.).
(B) The same experiment as in (A) was performed with ODN T, ODN CO, asPPT and ODN A pre-treated virions.
(D) C81-66145 cells were infected with virions pre-incubated with 0.5 or 5 μM of ODNs for 4 h, at an MOI of 1. RNA was extracted from infected cells and HIV replication was analysed by real-time PCR, 3 days post-infection.
(E) C81-66/45 cells were infected with virions pre-incubated with ODN A and ODN Sc for 4 h, at an MOI of 0.01. RNA was extracted from infected cells and HIV replication was analysed by real-time PCR, 1 h and 24 h post-infection. (F) The same experiment as in (E) was performed except for using ODN T, ODN B and ODN A, 1 hour post-infection.
C81-66/45 cells were infected with virions pre-incubated with ODN A, ODN T, ODN CO or as PPT for 4 h, at MOI of 0.01. RNA was extracted from infected cells and HIV replication was analysed by real-time PCR, 5 days p.i. (A), and 20 days p.i. (B); by measuring p24 production in the medium of the infected cells (C) or by RT-PCR, 11 days p.i. (D).

HIV virions [4] = test: ODN-mediated cleavage of viral RNA in intact HIV virions (real-time PCR, RT-PCR, agarose gel); format: biochemical; conditions: 0.5 μM ODN, intact HIV virions, RPMI medium, 6 hours
SFFV = test: NIH 3T3 cells infected with ODN-pretreated SFFV; format: cell-based; conditions: three days post-infection, real-time RT-PCR
Source text: As next step we investigated the antiviral effect of ODNs by testing pre-treated virions for residual infectivity as has been described before for HIV particles. SFFV particles were pretreated with ODN M or its variants and used to infect NIH 3T3 cells. After three days RNA was extracted from infected cells and from the supernatants and SFFV was quantified by real-time RT-PCR and analysis of amplification products (FIG. 9b).
b. NIH 3T3 cells were infected with SFFV pretreated with various ODNs. After three days the cells and supernatants were harvested and analyzed for SFFV RNA levels by quantitative real time RT-PCR (top) and RT-PCR (bottom) using GAPDH for comparison.

C=C1CCC[C@H]2[C@](C)(CC3=C(O)C(=O)C=C(OC)C3=O)[C@@H](C)CC[C@]12C [Illimaquinone]
ODN A-mediated viral RNA cleavage in presence of Illimaquinone [1]: failed to induce cleavage | inhibition of RNase H activity of HIV RT/RNaseH [2]: specifically inhibit the RNase H activity

AAAAGAAAAGGGGGGACTGGTTGGGTTTTCCCTTCCAGTCCCCCCTTTTCTTTT (chemistry not given here) [ODN T, passenger strand fully complementary to the antisense strand]
binding/uptake of pre-treated virions by host cells (HIV virions [3]): uptake similar to ODN A | HIV replication in infected cells (real-time PCR) (HIV virions [3]; virions pre-incubated 4 hours with 0.5 μM ODN, 0.01 MOI, 3 days post-infection): low but detectable levels | amount of undigested viral RNA (real-time PCR, primers covering PPT region) (HIV virions [4]): less efficient cleavage of the viral RNA

TCTTTTTGCGCGCTTTGTTTGTTTTTTCTTTCATTCCCCCCTTTTTCT (chemistry not given here) [ODN CG, ODN M variant with a triple nucleotide change in the second strand (SFFV tests)]
SFFV RNA in infected cells and supernatant (SFFV): clearly less efficient | amount of undigested viral RNA (real-time PCR, primers covering PPT region) (HIV virions [4]): antiviral activity similar to ODN A

TCTTTTTGGGGGGAATGTTTGTTTTTTCTTTCATTCCCCCCTTTTTCT (DNA, backbone and methylation of C not given here) [ODN S, ODN M variant, two nucleotide changes in the second strand]
SFFV RNA in infected cells and supernatant (SFFV): clearly less efficient

TTTCTTTTGGGGGGTTTGGTTGGGTTTTCCCTTCCAGTCCCCCCTTTTCTTT (chemistry not given here) [ODN B, one nucleotide removed from both 5′ and 3′ ends of ODN A]
binding/uptake of pre-treated virions by host cells (HIV virions [3]): uptake similar to ODN A | amount of undigested viral RNA (real-time PCR, primers covering PPT region) (HIV virions [4]): less efficient cleavage of the viral RNA

TTTGGGGGGTTCTTCCTCCTTTCCTTTTTCGCCCGTCCGTTGCGTTGATTTTTT (chemistry not given here) [ODN Sc, reference compound]
amount of undigested viral RNA (real-time PCR, primers covering PPT region) (HIV virions [4]): less efficient cleavage of the viral RNA

TTTTCTTTTGCGCGCTTTGGTTGGGTTTTCCCTTCCAGTCCCCCCTTTTCTTTT (chemistry not given here) [ODN NT, triple substitution in the passenger strand at site complementary to CCCCCC]
amount of undigested viral RNA (real-time PCR, primers covering PPT region) (HIV virions [4]): less efficient cleavage of the viral RNA

TTTTCTTTTGGGGGGACTGGTTGGGTTTTCCCTTCCAGTCCCCCCTTTTCTTTT (chemistry not given here) [ODN H, triple substitution in the passenger strand]
amount of undigested viral RNA (real-time PCR, primers covering PPT region) (HIV virions [4]): less efficient cleavage of the viral RNA
